# Literature values as cited in patent publication US8889867B2, “Solid forms and process for preparing” (Corcept Therapeutics, Inc., priority 2009, dated 2014).
# Assays:
# [1] = target: glucocorticoid receptor (GR) (Homo sapiens, UniProt P04150); settings: Bertagna (1984)
# [2] = test system: patients with Cushing's syndrome
# Sequence of glucocorticoid receptor (GR) (P04150 whole entry): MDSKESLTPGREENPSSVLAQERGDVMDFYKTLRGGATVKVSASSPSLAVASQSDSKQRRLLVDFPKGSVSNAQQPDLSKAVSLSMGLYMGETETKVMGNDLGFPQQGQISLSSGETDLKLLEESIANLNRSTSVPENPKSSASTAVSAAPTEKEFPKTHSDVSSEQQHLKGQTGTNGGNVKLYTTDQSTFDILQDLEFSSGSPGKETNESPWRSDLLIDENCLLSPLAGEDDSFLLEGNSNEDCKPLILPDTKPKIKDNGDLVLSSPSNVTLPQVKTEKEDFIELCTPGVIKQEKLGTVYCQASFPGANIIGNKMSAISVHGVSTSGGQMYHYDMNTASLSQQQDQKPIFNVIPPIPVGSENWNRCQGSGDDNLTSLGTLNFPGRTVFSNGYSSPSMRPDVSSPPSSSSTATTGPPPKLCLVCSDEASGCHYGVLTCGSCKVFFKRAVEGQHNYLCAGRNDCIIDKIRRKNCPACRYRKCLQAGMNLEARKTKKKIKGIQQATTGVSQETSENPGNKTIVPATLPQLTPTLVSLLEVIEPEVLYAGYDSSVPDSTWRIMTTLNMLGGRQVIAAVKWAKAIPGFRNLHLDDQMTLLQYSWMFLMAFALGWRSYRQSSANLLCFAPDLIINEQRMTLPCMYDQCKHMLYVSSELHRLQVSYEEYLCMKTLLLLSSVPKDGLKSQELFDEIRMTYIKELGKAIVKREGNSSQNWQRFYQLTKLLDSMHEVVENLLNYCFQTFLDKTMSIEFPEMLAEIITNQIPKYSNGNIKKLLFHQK
compound,measurement,setting,value
CC#C[C@]1(O)CC[C@H]2[C@@H]3CCC4=CC(=O)CCC4=C3[C@@H](c3ccc(N(C)C)cc3)C[C@@]21C [mifepristone],anti-glucocorticoid effect in humans,[1],effective anti-glucocorticoid agent
same,reversal of acute psychosis,"[2]; 400 to 800 mg per day, severe Cushing Syndrome due to adrenal cancers and ectopic ACTH secretion from lung cancer, Van der Lely (1991, 1993)",useful in rapidly reversing acute psychosis
same,"patients' conditions, including psychiatric status","[2]; Cushing's syndrome patients, Chrousos (1989), Sartor (1996)",improved the patients' conditions
